Reference: patent US20090169635A1, “PHARMACEUTICAL COMPOSITIONS AND USE THEREOF” (priority 2007, published 2009)
Counter-ions that a name gives are not always drawn.

Experiments:
[1] = test system: Mycobacter avium complex (MAC); settings: 100 mg/kg IM five days a week for four weeks; cited from earlier work
[2] = test system: Mycobacterium tuberculosis strain H37RV (ATCC 27294); test: Tuberculosis model: mice inoculated intravenously with M. tuberculosis, treated intraperitoneally for 4 weeks, observed to D56; type: in vivo, BALB/C female mice; settings: for Numbers of deaths: 4 weeks
[3] = cited from earlier work
[4] = test system: Staphylococcus pneumoniae (ATCC 6301); test: Bacterial pneumonia model: mice inoculated intratracheally, single intravenous treatment 20 hours later, mortality recorded for 10 days; type: in vivo, Male CD-1 mice; settings: Vancomycin dose 1 mg/kg i.v.
Procedure: An investigation of the antibacterial efficacy of nanoparticulate forms of parenterally administered Vancomycin was carried out in comparison with conventional parenteral Vancomycin […] for injection,
Bacteria: […] (ATCC #6301), Gram-positive serotype
Animals: Male CD-1 (Charles River Laboratory) mice weighing 24±2 g provided are used. Space allocation for animals is 45×23×21 cm for 10 mice. The animals are housed in animal cages and are maintained in a hygienic environment under controlled temperature (22°-23° C.) and humidity (50% -60%) with 12 hours light/dark cycles for at least one week in the laboratory prior to initiation of the study. Free access to standard lab food and water supply is allowed.
Pneumonia model: Mice were inoculated intratracheally (IT) with a LD90-100 of […] pneumoniae (ATCC 6301) (9.7×10^6 […]) in 40 μl PBS. In 16 hours, all mice developed pronounced pneumonia, confirmed by histological observation. Test formulations and vehicle were diluted with 5% sterile dextrose and administered intravenously to animals 20 hours after bacterial inoculation. Mortality was recorded once daily for 10 days.

[5] = 100 mg/kg i.p., 2 x week, cumulative 800 mg/kg
[6] = 200 mg/kg i.p., 5 x week, cumulative 4000 mg/kg
[7] = D56, 200 mg/kg i.p., 5 x week for 4 weeks

## [H]/N=C(/N)N[C@H]1[C@H](O)[C@@H](O)[C@H](O[C@@H]2O[C@@H](C)[C@](O)(C=O)[C@H]2O[C@@H]2O[C@@H](CO)[C@H](O)[C@@H](O)[C@@H]2NC)[C@@H](N/C(N)=N\[H])[C@@H]1O [Streptomycin USP, Streptomycin sulfate]
[1]
  bacterial count of MAC from spleen, lungs and liver: significant reduction in bacterial count
[2]; 100 mg/kg i.p., 2 x week, cumulative 800 mg/kg SM base
  Numbers of deaths: 5/12
[2]; [5]
  Survival rate (%) 14 d: 83%
  Survival rate (%) 28 d: 58%
  Survival rate (%) 56 d: 58%
[2]; 200 mg/kg i.p., 5 x week, cumulative 4000 mg/kg SM base
  Numbers of deaths: 1/12
[2]; [6]
  Survival rate (%) 14 d: 92%
  Survival rate (%) 28 d: 92%
  Survival rate (%) 56 d: 92%
[2]; D14, 100 mg/kg i.p., 2 x week
  Body weight: 14.90 ± 1.83 g
  Log (CFU/Lung): 8.16 ± 0.25 Log (CFU/Lung)
  Log (CFU/Spleen): 7.55 ± 0.26 Log (CFU/Spleen)
[2]; D14, 200 mg/kg i.p., 5 x week
  Body weight: 16.22 ± 0.39 g
  Log (CFU/Lung): 7.85 ± 0.14 Log (CFU/Lung)
  Log (CFU/Spleen): 6.90 ± 0.08 Log (CFU/Spleen)
[2]; D28, 100 mg/kg i.p., 2 x week
  Body weight: 16.73 ± 2.64 g
  Log (CFU/Lung): 8.37 ± 0.36 Log (CFU/Lung)
  Log (CFU/Spleen): 7.48 ± 0.51 Log (CFU/Spleen)
[2]; D28, 200 mg/kg i.p., 5 x week
  Body weight: 19.62 ± 0.29 g
  Log (CFU/Lung): 7.57 ± 0.26 Log (CFU/Lung)
  Log (CFU/Spleen): 6.66 ± 0.28 Log (CFU/Spleen)
[2]; [7]
  Body weight: 17.85 ± 1.15 g
  Log (CFU/Lung): 8.86 ± 0.18 Log (CFU/Lung)
  Log (CFU/Spleen): 7.21 ± 0.23 Log (CFU/Spleen)

## Vancomycin sulfate [Vancomycin injection (USP)]
[3]; patients, lung epithelial lining fluid versus plasma
  concentration in epithelial lining fluid: ≤ 20 % of plasma levels
[3]; standard dosage (1 g twice daily)
  patients with inadequate concentrations: approximately 40 % of patients
[4]; 10 days
  Mortality: 70%
  Survival: 30%
[4]; n=10, Day 1
  Day 1 (deaths recorded that day): 0
[4]; n=10, Day 2
  Day 2 (deaths recorded that day): 0
[4]; n=10, Day 3
  Day 3 (deaths recorded that day): 0
[4]; n=10, Day 4
  Day 4 (deaths recorded that day): 1
[4]; n=10, Day 5
  Day 5 (deaths recorded that day): 3
[4]; n=10, Day 6
  Day 6 (deaths recorded that day): 2
[4]; n=10, Day 7
  Day 7 (deaths recorded that day): 0
[4]; n=10, Day 8
  Day 8 (deaths recorded that day): 1
[4]; n=10, Day 9
  Day 9 (deaths recorded that day): 0
[4]; n=10, Day 10
  Day 10 (deaths recorded that day): 0
